# According to patent publication US7674789B2, “Compounds” (Glaxo Group Limited, priority 2005, dated 2010):
# Entries after “also recorded” stand apart in the source; their conditions may differ. Where a name gives a salt, the structure may show the parent alone.
# System: IL-6, IL-8, GM-CSF, RANTES and COX-2
# Test: not given
# Details: a number of different cell types; cited from earlier work
row,SMILES,"decreasing the synthesis of pro-inflammatory proteins including IL-6, IL-8, GM-CSF, RANTES and COX-2"
1,C[S+]([O-])c1ccc(-c2nc(-c3ccncc3)c(-c3ccc(F)cc3)[nH]2)cc1 (stereo not shown) [SB-203580],effective
2,Fc1ccc(-c2nc3n(c2-c2ccncc2)CCS3)cc1 [SK&F 86002],effective

# System: TGF-β-induced fibronectin and thrombospondin
# Test: not given
# Details: Laping et al., 2002, Molec. Pharmacol. 62:58-64; cited from earlier work
row,SMILES,effect on TGF-β-induced increases in fibronectin and thrombospondin
1,COc1nccc(-c2c(-c3ccc(F)cc3)ncn2C2CCNCC2)n1 [SB-242235],inhibited

# System: influx of neutrophils to the lung in LPS-challenged rats
# Test: Rat LPS neutrophilia model
# Format: in vivo
# Details: intratracheal compound 15 min-24 hours before LPS aerosol (100 ug/ml, 15 min), lavage 4 hours later, in at least one of the range of conditions tested
# Description: Rat LPS Neutrophilia Model
# The effect of compounds on the influx of neutrophils to the lung in LPS-challenged rats is evaluated as follows. The test compound is suspended in one of the following solutions: 0.5% tween 80/PBS, 0.5% tween 80/saline, 10% EtOH/saline (with pH adjusted to 2.0, or 8.0 with HCl, or unadjusted), Saline @ pH 2.0, 6.5 or 8.0, 0.5% Tragacanth, 1% DMSO/20% Encapsin/Saline, or acidified 5% Tragacanth. The suspension process may be aided by the use of a glass homogenizer. For intratracheal administration, the animals are anesthetized with inhaled isoflurane and placed in a supine position, the trachea is intubated with a steel gavage needle (1.5 inch, 22 gauge, small ball) or a Penn-Century Microsprayer Aerosolizer (model IA-1B) and 200 ul of dosing solution is delivered. The animals are visually monitored during the recovery process, which typically occurs within two minutes.
# Rats treated with compound or vehicle (15 min-24 hours pretreatment) are exposed to an LPS aerosol (100 ug/ml) for 15 min. Four hours later the rats are euthanized with pentobarbital (100 mg/kg, i.p.) and the airways are lavaged with 5 washes of 5 ml of phosphate buffered saline. The harvested cells are stained (Diffquick) and counted to determine total and differential cell data. In a typical study, macrophages represent 40-70% of the total cells, and polymorphonuclear cells 30-60% of the total cells. Inhibition of neutrophil levels relative to no compound controls is calculated based on the differential counts.
# The assay has varying conditions, such as concentration, pretreat time, form of the compound (crystalline, amorphous, salts, micronised), and a wet or dry application of the compound. The data is obtained as % inhibition using a particular concentration and pretreat time.
row,SMILES,inhibition of neutrophilia (neutrophil influx to the lung)
1,"Cc1ccc(C(=O)Nc2ccc(F)cc2)cc1-c1nc(NC2CCN(C)CC2)nc2c1CNC(=O)N2c1c(F)cccc1F [Example 39, 3-{8-(2,6-difluorophenyl)-2-[(1-methyl-4-piperidinyl)amino]-7-oxo-5,6,7,8-tetrahydropyrimido[4,5-d]pyrimidin-4-yl}-N-(4-fluorophenyl)-4-methylbenzamide]",statistically nonsignificant inhibition of neutrophilia
2,"CCN(CC)CCCNc1nc(-c2cc(C(=O)Nc3nccs3)ccc2C)c2c(n1)N(c1c(F)cccc1F)C(=O)NC2 [Example 120, 3-[2-{[3-(diethylamino)propyl]amino}-8-(2,6-difluorophenyl)-7-oxo-5,6,7,8-tetrahydropyrimido[4,5-d]pyrimidin-4-yl]-4-methyl-N-1,3-thiazol-2-ylbenzamide]",statistically significant inhibition of neutrophilia
3,"Cc1c(F)cc(C(=O)Nc2ccccc2)cc1-c1nc(NCCN(C)C)nc2c1CNC(=O)N2c1c(F)cccc1F [Example 112, 3-(8-(2,6-difluorophenyl)-2-{[2-(dimethylamino)ethyl]amino}-7-oxo-5,6,7,8-tetrahydropyrimido[4,5-d]pyrimidin-4-yl)-5-fluoro-4-methyl-N-phenylbenzamide]",statistically significant inhibition of neutrophilia
4,"CSc1nc(-c2cc(NC(=O)c3ccc(C)c(F)c3)ccc2C)c2c(n1)N(c1c(F)cccc1F)C(=O)NC2 [23(c), N-{3-[8-(2,6-difluorophenyl)-2-(methylthio)-7-oxo-5,6,7,8-tetrahydropyrimido[4,5-d]pyrimidin-4-yl]-4-methylphenyl}-3-fluoro-4-methylbenzamide]",inactive
5,"Cc1ccc(C(=O)NC(C)C)cc1-c1nc(N2CCCN(C)CC2)nc2c1CNC(=O)N2c1c(F)cccc1F [Example 179, 3-[8-(2,6-difluorophenyl)-2-(4-methylhexahydro-1H-1,4-diazepin-1-yl)-7-oxo-6,7,8-tetrahydropyrimido[4,5-d]pyrimidin-4-yl]-4-methyl-N-(1-methylethyl)benzamide trifluoroacetate]",statistically nonsignificant inhibition of neutrophilia
6,"Cc1ccc(C(=O)NC(C)C)cc1-c1nc(N(C)CCCN(C)C)nc2c1CNC(=O)N2c1c(F)cccc1F [34(d), 3-{8-(2,6-difluorophenyl)-2-[[3-(dimethylamino)propyl](methyl)amino]-7-oxo-5,6,7,8-tetrahydropyrimido[4,5-d]pyrimidin-4-yl}-4-methyl-N-(1-methylethyl)benzamide]",statistically nonsignificant inhibition of neutrophilia
7,"Cc1ccc(C(=O)Nc2ccccc2)cc1-c1nc(NCCN(C)C)nc2c1CNC(=O)N2c1c(F)cccc1F [Example 137, 3-(8-(2,6-difluorophenyl)-2-{[2-(dimethylamino)ethyl]amino}-7-oxo-5,6,7,8-tetrahydropyrimido[4,5-d]pyrimidin-4-yl)-4-methyl-N-phenylbenzamide]",statistically significant inhibition of neutrophilia
8,"CSc1nc(-c2cc(NC(=O)c3ccsc3)ccc2C)c2c(n1)N(c1c(F)cccc1F)C(=O)NC2 [7(c), N-{3-[8-(2,6-Difluorophenyl)-2-(methylthio)-7-oxo-5,6,7,8-tetrahydropyrimido[4,5-d]pyrimidin-4-yl]-4-methylphenyl}-3-thiophenecarboxamide]",inactive
9,"Cc1ccc(C(=O)Nc2nccs2)cc1-c1nc(NCCCN(C)C)nc2c1CNC(=O)N2c1c(F)cccc1F [Example 119, 3-(8-(2,6-difluorophenyl)-2-{[3-(dimethylamino)propyl]amino}-7-oxo-5,6,7,8-tetrahydropyrimido[4,5-d]pyrimidin-4-yl)-4-methyl-N-1,3-thiazol-2-ylbenzamide]",statistically significant inhibition of neutrophilia
10,"Cc1ccc(C(=O)NC(C)C)cc1-c1nc(N2CCC(N3CCN(C)CC3)CC2)nc2c1CNC(=O)N2c1c(F)cccc1F [Example 72, 3-{8-(2,6-difluorophenyl)-2-[4-(4-methyl-1-piperazinyl)-1-piperidinyl]-7-oxo-5,6,7,8-tetrahydropyrimido[4,5-d]pyrimidin-4-yl}-4-methyl-N-(1-methylethyl)benzamide]",statistically significant inhibition of neutrophilia
11,"Cc1ccc(NC(=O)c2ccsc2)cc1-c1nc(N2CCC(N)CC2)nc2c1CNC(=O)N2c1c(F)cccc1F [Example 11, N-{3-[2-(4-amino-1-piperidinyl)-8-(2,6-difluorophenyl)-7-oxo-5,6,7,8-tetrahydropyrimido[4,5-d]pyrimidin-4-yl]-4-methylphenyl}-3-thiophenecarboxamide]",statistically significant inhibition of neutrophilia
12,"Cc1ccc(C(=O)NC(C)C)cc1-c1nc(N2CCC(N3CCCC3)CC2)nc2c1CNC(=O)N2c1c(F)cccc1F [Example 60, 3-{8-(2,6-difluorophenyl)-7-oxo-2-[4-(1-pyrrolidinyl)-1-piperidinyl]-5,6,7,8-tetrahydropyrimido[4,5-d]pyrimidin-4-yl}-4-methyl-N-(1-methylethyl)benzamide]",statistically nonsignificant inhibition of neutrophilia; also recorded: inactive
13,"CN(C)CCNc1nc(-c2cccc(C(=O)Nc3ccc(F)cc3)c2)c2c(n1)N(c1c(F)cccc1F)C(=O)NC2 [Example 93, 3-(8-(2,6-difluorophenyl)-2-{[2-(dimethylamino)ethyl]amino}-7-oxo-5,6,7,8-tetrahydropyrimido[4,5-d]pyrimidin-4-yl)-N-(4-fluorophenyl)benzamide]",statistically nonsignificant inhibition of neutrophilia
